Test results: PubChem BioAssay (NCI)
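Protocol summary: plate cells (96-well), add compound at 5 concentrations, incubate 48 h, interpolate endpoints linearly. The concentration for full growth arrest is given as TGI.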

Columns and labels:
Assay in all cases: NCI tumour cell line growth inhibition, 48 h
A498 renal = system: A498 renal
A549 NSCLC = system: A549 NSCLC
ACHN renal = system: ACHN renal
CAKI-1 renal = system: CAKI-1 renal
CCRF-CEM leukemia = system: CCRF-CEM leukemia
COLO 205 colon = system: COLO 205 colon
DU-145 prostate = system: DU-145 prostate
EKVX NSCLC = system: EKVX NSCLC
HCC-2998 colon = system: HCC-2998 colon
HCT-15 colon = system: HCT-15 colon
HL-60(TB) leukemia = system: HL-60(TB) leukemia
HOP-62 NSCLC = system: HOP-62 NSCLC
HOP-92 NSCLC = system: HOP-92 NSCLC
HS 578T breast = system: HS 578T breast
HT29 colon = system: HT29 colon
IGROV1 ovarian = system: IGROV1 ovarian
K-562 leukemia = system: K-562 leukemia
KM12 colon = system: KM12 colon
LOX IMVI melanoma = system: LOX IMVI melanoma
M14 melanoma = system: M14 melanoma
MCF7 breast = system: MCF7 breast
MDA-MB-231 breast = system: MDA-MB-231 breast
MDA-MB-435 = system: MDA-MB-435
MOLT-4 leukemia = system: MOLT-4 leukemia
NCI-H226 lung = system: NCI-H226 lung
NCI-H23 lung = system: NCI-H23 lung
NCI-H460 lung = system: NCI-H460 lung
NCI-H522 lung = system: NCI-H522 lung
NCI/ADR-RES ovarian = system: NCI/ADR-RES ovarian
OVCAR-3 ovarian = system: OVCAR-3 ovarian
OVCAR-4 ovarian = system: OVCAR-4 ovarian
OVCAR-5 ovarian = system: OVCAR-5 ovarian
OVCAR-8 ovarian = system: OVCAR-8 ovarian
PC-3 prostate = system: PC-3 prostate
RPMI-8226 leukemia = system: RPMI-8226 leukemia
RXF 393 renal = system: RXF 393 renal
SF-268 CNS = system: SF-268 CNS
SF-295 CNS = system: SF-295 CNS
SF-539 CNS = system: SF-539 CNS
SK-MEL-2 melanoma = system: SK-MEL-2 melanoma
SK-MEL-28 melanoma = system: SK-MEL-28 melanoma
SK-MEL-5 melanoma = system: SK-MEL-5 melanoma
SK-OV-3 ovarian = system: SK-OV-3 ovarian
SNB-19 CNS = system: SNB-19 CNS
SNB-75 CNS = system: SNB-75 CNS
SR leukemia = system: SR leukemia
SW-620 colon = system: SW-620 colon
T-47D breast = system: T-47D breast
TK-10 renal = system: TK-10 renal
U251 CNS = system: U251 CNS
UACC-257 melanoma = system: UACC-257 melanoma
UACC-62 melanoma = system: UACC-62 melanoma
UO-31 renal = system: UO-31 renal

What does the source list for Cc1ccc(C(=O)N/N=C(\N=Nc2ccccc2)c2ccc(N(CCC#N)CCC#N)cc2C)cc1?
TGI (A498 renal): > 100 µM; TGI (A549 NSCLC): > 100 µM; TGI (ACHN renal): > 100 µM; TGI (CAKI-1 renal): > 100 µM; TGI (CCRF-CEM leukemia): > 100 µM; TGI (COLO 205 colon): > 100 µM; TGI (DU-145 prostate): > 100 µM; TGI (EKVX NSCLC): > 100 µM; TGI (HCC-2998 colon): > 100 µM; TGI (HCT-15 colon): > 100 µM; TGI (HL-60(TB) leukemia): > 100 µM; TGI (HOP-62 NSCLC): 52.9 µM; TGI (HOP-92 NSCLC): > 100 µM; TGI (HS 578T breast): > 100 µM; TGI (HT29 colon): > 100 µM; TGI (IGROV1 ovarian): > 100 µM; TGI (K-562 leukemia): > 100 µM; TGI (KM12 colon): > 100 µM; TGI (LOX IMVI melanoma): > 100 µM; TGI (M14 melanoma): > 100 µM; TGI (MCF7 breast): > 100 µM; TGI (MDA-MB-231 breast): > 100 µM; TGI (MDA-MB-435): > 100 µM; TGI (MOLT-4 leukemia): > 100 µM; TGI (NCI-H226 lung): > 100 µM; TGI (NCI-H23 lung): > 100 µM; TGI (NCI-H460 lung): > 100 µM; TGI (NCI-H522 lung): 61.3 µM; TGI (NCI/ADR-RES ovarian): > 100 µM; TGI (OVCAR-3 ovarian): > 100 µM; TGI (OVCAR-4 ovarian): > 100 µM; TGI (OVCAR-5 ovarian): > 100 µM; TGI (OVCAR-8 ovarian): > 100 µM; TGI (PC-3 prostate): > 100 µM; TGI (RPMI-8226 leukemia): > 100 µM; TGI (RXF 393 renal): > 100 µM; TGI (SF-268 CNS): 61.7 µM; TGI (SF-295 CNS): > 100 µM; TGI (SF-539 CNS): 39.9 µM; TGI (SK-MEL-2 melanoma): > 100 µM; TGI (SK-MEL-28 melanoma): > 100 µM; TGI (SK-MEL-5 melanoma): > 100 µM; TGI (SK-OV-3 ovarian): > 100 µM; TGI (SNB-19 CNS): > 100 µM; TGI (SNB-75 CNS): > 100 µM; TGI (SR leukemia): > 100 µM; TGI (SW-620 colon): > 100 µM; TGI (T-47D breast): > 100 µM; TGI (TK-10 renal): > 100 µM; TGI (U251 CNS): > 100 µM; TGI (UACC-257 melanoma): > 100 µM; TGI (UACC-62 melanoma): > 100 µM; TGI (UO-31 renal): > 100 µM
